Experiments:
[1] = humans; cited from earlier work
antibody to FK778 = test: Interference of prescription drugs in the […] FK778 competitive chemiluminescent immunoassay; format: binding
Protocol: FK778 assays were performed by an […]® instrument, commercially available from Abbott Laboratories, Abbott Park, Ill., according to the following procedure. See also U.S. Pat. Nos. 5,795,784 and 5,856,194, both of which are incorporated herein by reference. A serum sample (10 μL) was diluted with Line Diluent at a ratio of 1 part sample to 20 parts Line Diluent. A portion of the diluted sample (10 μL) was mixed with 90 μL of Conjugate Reagent and 50 μL of Line Diluent. Magnetic Microparticle Reagent (50 μL) and Bihapten Tracer Reagent (50 μL) were added to the foregoing mixture after a period of six (6) seconds. The resulting mixture (250 μL) was incubated for 25 minutes. The microparticles were washed three (3) times with 1 mL of Line Diluent. The magnetic particles were attracted to a magnet at the same time that they were being washed. The washed microparticles were treated with Pretrigger Reagent (100 μL acidic hydrogen peroxide). Finally, the chemiluminescent reaction was triggered by addition of Trigger Reagent (alkaline detergent solution (300 μL)). Measurement of light generated was carried out by means of a photomultiplier tube.
This example illustrates interference with prescription drugs. Interference was tested for 44 of 45 prescription drugs at levels recommended in NCCLS document EP-7P. Interference was tested in the presence of FK778 and absence of FK778 in the sample. Interference was defined as greater than 5 μg/mL (without FK778) or greater than 10% (with FK778). […] Both interferences were expected; fluorescein because of its competition with the FK778-fluorescein bihapten tracer and A77,1726 because of its similarity in structure to FK778.
Fluorescein is used in in vivo diagnostic procedures to measure blood flow in the eye and is not expected to be present in patients undergoing a transplant. 10 Nevertheless, fluorescein was tested more thoroughly to estimate the magnitude of the interference at concentrations lower than 400 μg/mL.
Additional testing was also carried out with A77, 1726 to assess the cross-reactivity of this molecule in the presence and absence of FK778.

C/C(O)=C(\C#N)C(=O)Nc1ccc(C(F)(F)F)cc1 [A77 1726]
plasma half-life [1]: 15 to 18 days
% Cross-reactivity A77,1726 (antibody to FK778; A77,1726 50 μg/mL, High FK778): 13%
A77,1726 measured as FK778 (antibody to FK778; A77,1726 50 μg/mL, High FK778): 152.9 µg/mL
% Cross-reactivity A77,1726 (antibody to FK778; A77,1726 50 μg/mL, Low FK778): 43%
A77,1726 measured as FK778 (antibody to FK778; A77,1726 50 μg/mL, Low FK778): 42.3 µg/mL
% Cross-reactivity A77,1726 (antibody to FK778; A77,1726 50 μg/mL, Med FK778): 24%
A77,1726 measured as FK778 (antibody to FK778; A77,1726 50 μg/mL, Med FK778): 85 µg/mL
% Cross-reactivity A77,1726 (antibody to FK778; A77,1726 100 μg/mL, High FK778): 23%
A77,1726 measured as FK778 (antibody to FK778; A77,1726 100 μg/mL, High FK778): 170.1 µg/mL
% Cross-reactivity A77,1726 (antibody to FK778; A77,1726 100 μg/mL, Low FK778): 42%
A77,1726 measured as FK778 (antibody to FK778; A77,1726 100 μg/mL, Low FK778): 62.6 µg/mL
% Cross-reactivity A77,1726 (antibody to FK778; A77,1726 100 μg/mL, Med FK778): 31%
A77,1726 measured as FK778 (antibody to FK778; A77,1726 100 μg/mL, Med FK778): 103.4 µg/mL
% Cross-reactivity A77,1726 (antibody to FK778; A77,1726 200 μg/mL, High FK778): 34%
A77,1726 measured as FK778 (antibody to FK778; A77,1726 200 μg/mL, High FK778): 209.3 µg/mL
% Cross-reactivity A77,1726 (antibody to FK778; A77,1726 200 μg/mL, Low FK778): 42%
A77,1726 measured as FK778 (antibody to FK778; A77,1726 200 μg/mL, Low FK778): 104.8 µg/mL
% Cross-reactivity A77,1726 (antibody to FK778; A77,1726 200 μg/mL, Med FK778): 37%
A77,1726 measured as FK778 (antibody to FK778; A77,1726 200 μg/mL, Med FK778): 145.5 µg/mL
% Cross-reactivity A77,1726 (antibody to FK778; A77,1726 200 μg/mL, Zero FK778): 47%
A77,1726 measured as FK778 (antibody to FK778; A77,1726 200 μg/mL, Zero FK778): 94.9 µg/mL
Interference (antibody to FK778; defined as greater than 5 μg/mL (without FK778) or greater than 10% (with FK778)): Interference was observed

C#CCC/C(O)=C(\C#N)C(=O)Nc1ccc(C(F)(F)F)cc1 [FK778]
plasma half-life compared with A77 1726 [1]: shorter

Reference: patent US20070161123A1, “DETERMINATION OF CONCENTRATION OF FK778 BY COMPETITIVE IMMUNOASSAY” (priority 2006, published 2007)
